The values below come from paper doi:10.1101/2025.10.26.684696v1 (bioRxiv, 2025).

Residues, ends and D or L forms follow the SMILES beside them.

A short description of series [1]: Stability in simulated gastric fluid. It counts as in vitro ADME. Particulars: pH 1.6.
Series [2] can be described thus: LogD7.4 by miniaturized shake-flask procedure. In kind it is physicochemical. The conditions noted are these: miniaturized shake-flask procedure at pH 7.4.
A short description of series [3]: Stability in human plasma. It counts as in vitro ADME.
Series [4] is described as follows: Stability in rat liver microsomes. In kind it is in vitro ADME.
A short description of series [5]: Stability in simulated intestinal fluid. It counts as in vitro ADME. Particulars: pH 6.5.
A further series in a line: Caco-2 cell permeability. In kind it is in vitro ADME.
For series [6] the following is noted: reference compound; cited from earlier work.
For series [7] the following is noted: reference compound; cited from earlier work. The source holds these as a separate data set.

Usually half-life stands for the time needed for the level to fall by half in the phase considered. In general, amount remaining refers to what is left of the initial amount, in per cent. A low value points to more turnover. As a reminder, the Papp A→B is the apparent permeability from the apical to the basolateral side of a cell layer. Read a low Papp A→B as poor permeation. As a reminder, the Papp B→A is the apparent permeability from the basolateral to the apical side of a cell layer. By efflux ratio is commonly meant a quotient of directional permeabilities that is used to spot active efflux. Consider `N=C(N)NCCC[C@@H]1NC(=O)CNC(=O)CNC(=O)[C@H](Cc2c[nH]cn2)NC(=O)CNC(=O)CNC(=O)[C@H](Cc2c[nH]c3ccccc23)NC(=O)[C@H](Cc2c[nH]c3ccccc23)NC(=O)CNC(=O)[C@H](CCCCN)NC(=O)CNC(=O)[C@H](CO)NC(=O)CNC(=O)CNC(=O)[C@H](Cc2c[nH]c3ccccc23)NC1=O` [SP4] (cyclo(GGHGGRWGGSGKGWW)), for which the half-life in series [1] is 1.8 h. The same compound registered a LogD7.4 in series [2] of 0.86. This compound gave a fraction remaining at 1 h in series [3] of 89.4%. In series [4], this compound gave a half-life of 4.7 h. This compound showed a half-life in series [5] of 7.6 h. In the series “Caco-2 cell permeability”, the Papp A→B was found to be 1.78 ×10⁻⁶ cm/s, the Papp B→A stood at 2.15 ×10⁻⁶ cm/s and the efflux ratio was around 1.2.

As for `CC[C@H]1OC(=O)[C@H](C)[C@@H](O[C@H]2C[C@@](C)(OC)[C@@H](O)[C@H](C)O2)[C@H](C)[C@@H](O[C@@H]2O[C@H](C)C[C@H](N(C)C)[C@H]2O)[C@](C)(O)C[C@@H](C)C(=O)[C@H](C)[C@@H](O)[C@]1(C)O` [erythromycin], the “Stability in intestinal simulated fluids (t1/2)” value in series [6] is 7.55 h.

In the case of `CC(C)[N+](C)(CCOC(=O)C1c2ccccc2Oc2ccccc21)C(C)C` [propantheline], the “Human plasma stability (t1/2)” value in series [7] is 2.6 min.
